# Experimental data: patent publication US20020173523A1, “IMMUNOSUPPRESSION BY PHOTOCHEMOTHERAPY” (priority 1997, published 2002)
# What was measured:
# BALB/c mice = assay: Contact hypersensitivity test: ear swelling after primary and secondary sensitization with picryl chloride, photochemotherapy with 664 nm laser light; type: in vivo; conditions: for Rate of Ear swelling, (%) (Average value ± Standard deviation): laser 664 nm, 10 J/cm^2, 30 min after dosing, untreated group = 100%, 24 h after secondary sensitization
# Text: After the intravenous injection, hair of the abdominal side of the mice was shaved off. Thirty minutes after the administration of the test compound, a laser light at a wave length of 664 nm was irradiated onto the exposed skin of the abdominal side of the mice to give a total fluence of 10 J/cm^2 under the conditions of the laser output of 20 mW/cm^2 and the radiated spots of a diameter of 18 mm.
# Five days after the primary sensitization, an aqueous solution containing 1% picryl chloride was applied to one ear of each mouse under test, to effect the secondary sensitization. Thus, there were prepared the treated groups of the test mice having a contact hypersensitibity.
# (iii) Twenty-four hours after the secondary sensitization, namely six days after the primary sensitization, measurements were made of the thickness of both the ears of each mouse under test by a thickness gauge, and the increases in the thickness of ears were calculated from the difference which was found between the thickness of the one ear having not received the application of picryl chloride and the thickness of the another ear having received the application of picryl chloride for the secondary sensitization. Then, the rates (%) of ear swelling of each mouse of the treated group of mice were evaluated, on such assumption that the average value of the increase in the thickness of the secondarily sensitized ears of the mice of the untreated group was regarded as amounting to 100%, in respect of the mice of the untreated group of mice where the mice were neither administered with the test compound, nor were irradiated with the laser light, but where the mice received only the primary and secondary sensitizations with picryl chloride.
# [1] = test system: mice of BALB/c (H-2K^d) strain; assay: Rejection reactions upon transplantation of skin in mice, photochemotherapy with 664 nm laser light; type: in vivo; conditions: for Percentage (%) of number of the mice with the surviving and remaining skin graft transplanted: 1 mg/kg i.v., laser 664 nm 10 J/cm^2
# Experimental: The following experiment was conducted in order to evaluate the therapeutic effect of the photochemotherapeutical method of this invention for treating the rejection reactions raised upon the transplantation of skin in mice.
# Thus, as the mice (the recipient) which were to recieve a transplantation of skin, were used mice of BALB/c (H-2K^d) strain (ten mice per group). […] Thirty minutes after the intravenous injection of the test compound, a laser light at the wave length of 664 nm was irradiated onto the abdominal side of each recipient mouse at the laser output of 20 mW/cm^2, at the irradiated spots of a diameter of 18 mm and at a total laser fluence of 10 J/cm^2.
# On the other hand, mice of CH/HeN(H-2K^b) strain were used as the mice (the donor) which were to afford the graft of skin for the transplantation to the recipient. The graft of skin to be used for the skin transplantation was one piece of the tail skin of the donor mice which was cut into a piece of about 5 mm×5 mm. This graft of skin was transplanted on the back side of the recipient mouse in such a manner that hair of the back side of the mouse was firstly shaved off, then one region of the skin of the hair-shaved back side of mouse was stripped off and the skin graft was transplanted onto the skin-stripped region of the back side of the recipient mouse. This skin transplantation was performed twenty-four hours after the irradiation of laser light on the recipient mouse.
# Then, observation was made as to whether the skin graft so transplanted would fall off or not fall from the recipient mouse within the period of from the time of the skin transplantation to the 15 the days after the intravenous injection of the test compound.
# The number of the recipient mice which normally have the transplanted and surviving skin graft remaining on the back side of mouse was counted at each of the given days of observation. The ratio of the number of the graft-remaining mouse at the each day to the number of the mouse at 0 day was expressed as percentage (%), with that the number of the recipient mice at the 0 day being assumed as 100.
# Mice of the untreated group were those mice which received the skin transplantation only but neither received the administration of the test compound nor received the irradiation of laser light.
# CD-1 mice (male) = assay: Acute toxicity; type: in vivo
smiles,measurement,setting,value
C=Cc1c(C)c2cc3nc(c(CC(=O)N[C@@H](CC(=O)[O-])C(=O)[O-])c4[nH]c(cc5nc(cc1[nH]2)C(C)=C5CC)c(C)c4C(=O)[O-])[C@@H](CCC(=O)[O-])[C@@H]3C.[Na+].[Na+].[Na+].[Na+],"Rate of Ear swelling, (%) (Average value ± Standard deviation)",BALB/c mice; 0.001 mg/kg i.v.,54.4 ± 7.2%
same,"Rate of Ear swelling, (%) (Average value ± Standard deviation)",BALB/c mice; 0.01 mg/kg i.v.,53.2 ± 20.6%
same,"Rate of Ear swelling, (%) (Average value ± Standard deviation)",BALB/c mice; 0.05 mg/kg i.v.,33.3 ± 4.4%
same,"Rate of Ear swelling, (%) (Average value ± Standard deviation)",BALB/c mice; 0.1 mg/kg i.v.,27.8 ± 8.5%
same,Suppression of the ear swelling,"BALB/c mice; i.v. dosages of 0.001 mg/kg or more, then laser light",≥ 45%
same,Ear swelling in contact hypersensitivity testing (result in words),"BALB/c mice; i.v., laser light at 664 nm",remarkably be suppressed
same,Percentage (%) of number of the mice with the surviving and remaining skin graft transplanted,[1]; 0th day (day of skin transplantation),100%
same,Percentage (%) of number of the mice with the surviving and remaining skin graft transplanted,[1]; 6th day,100%
same,Percentage (%) of number of the mice with the surviving and remaining skin graft transplanted,[1]; 7th day,80%
same,Percentage (%) of number of the mice with the surviving and remaining skin graft transplanted,[1]; 10th day,80%
same,Percentage (%) of number of the mice with the surviving and remaining skin graft transplanted,[1]; 11th day,80%
same,Percentage (%) of number of the mice with the surviving and remaining skin graft transplanted,[1]; 15th day,0%
same,Rejection reactions in transplantation of skin (result in words),"[1]; i.v., laser light at 664 nm",preventively suppressed
same,Percentage of the total mice tested with falling off of the skin graft,"[1]; within the period of 6th to 11th days, treated group",20%
same,LD50,CD-1 mice (male),164 mg/kg
same,Photo-toxicity reactions (result in words),Photo-toxicity test,"no reactions such as erythema, edema"
